Experimental data from patent publication US9150528B2, “Compound having detrusor muscle-contracting activity and urethral sphincter muscle-relaxing activity” (ONO PHARMACEUTICAL CO., LTD., priority 2009, dated 2015).

What was measured:
[1] = Systemic clearance after intravenous administration; type: in vivo; conditions: plasma, cynomolgus monkey, 0.001 mg/mL/kg
Procedure: Equimolar sodium hydroxide and injectable distilled water were added to each of the test compounds to prepare a 1 mg/mL aqueous solution. The aqueous solution was diluted with physiological saline until the concentration reached 0.001 mg/mL and was rapidly administered at a dose of 0.001 mg/mL/kg to cynomolgus monkey through the cephalic vein. Via heparinized syringes, 2 min, 5 min, 15 min, 30 min, 1 hr, 2 hr, 4 hr, 6 hr, 8 hr and 24 hr after administration, blood was drawn from the cephalic vein (non-administered sites). After centrifugation, blood plasma was sampled and stored at −80° C. before pretreatment. The blood plasma was pretreated by mixing with acetonitrile and centrifuging to remove proteins followed by measurement by LC/MS/MS. Changes of concentration in blood plasma was analyzed using WinNonlin4.0.1 to evaluate the systemic clearance of the test compound.

[2] = test system: urinary excretion dysfunction models; assay: Urinary excretion dysfunction models, maximal urinary flow rate; type: in vivo; conditions: 60 ng/kg/h continuous intravenous, cynomolgus monkey urinary excretion dysfunction model
Description: Urinary excretion dysfunction models were constructed in accordance with the following procedure. After anesthesia of cynomolgus monkeys, the region from the suprapubic area to the abdominal area was shaved, followed by fixing in a dorsal position. The shaved region was disinfected and the four legs were fixed. Using an electrosurgical knife, the skin region from the suprapubic area to the umbilical area and the peritoneal membrane were sequentially incised, followed by damage to the pelvic nerve and removal of the uterus. After the surgical operation, viccillin-containing physiological saline was added dropwise to the incised area. The peritoneal membrane and skin of the incised area were sutured with silk threads and disinfected. Viccillin was administered for 7 consecutive days after surgery. Meloxicam was administered once daily for 7 consecutive days to manage pain in the perioperative period.
The cynomolgus monkeys were seated on monkey chairs, followed by retention of the hands and legs with strings. Injectable water was administered orally, and physiological saline and the test compound (60 ng/kg/h) were continuously administered intravenously to allow urination freely. The maximal urinary flow rate was measured using a urine weighing sensor.

normal rats = assay: Blood pressures and heart rates in normal rats; type: in vivo, rat; conditions: 0.3 mg/kg, oral
Procedure: The blood pressures and heart rates of female Wistar rats were measured in accordance with the following procedure. On the day of measurement, indwelling of catheters for blood pressure•heart rate measurement was carried out under anesthesia with ether. The back of the neck of each rat was incised; a feeding catheter (Atom Medical Corporation) filled with heparinized physiological saline was introduced from the back of the neck; the catheter was inserted into the common carotid artery; and the surgical incision was closed. The measurements were carried out in a Bollmann cage under the conscious state, and the evaluations were carried out after confirming that the individual parameters were stabilized. After confirming the stabilization of blood pressure and heart rate, the test compound which was prepared using injectable water containing equimolar NaOH was orally administered at a dose of 5 mL/kg.
The catheter drawn from the back of the neck was connected to a pressure transducer (DX-200, NIHON KOHDEN CORP.), and the blood pressures and heart rates were measured using an amplifier for pressure measurement (Gould Instrument). The blood pressures and heart rates were recorded using a recorder (LINEARCORDERWR3320, GRAPHTEC). For each individual, rates of increase and decrease in average blood pressure and heart rate before administration and 30, 60, 120, and 180 min after administration were calculated with respect to the values of each individual before administration. Changes in blood pressure and heart rate before and after administration of the test compound were evaluated.

C=CCC[C@](C)(O)C/C=C/[C@H]1CCC(=O)[C@@H]1CCSc1nc(C(=O)O)cs1 [Comparative compound D, 2-[(2-{(1R,2R)-2-[(1E,4S)-4-hydroxy-4-methyl-1,7-octadien-1-yl]-5-oxocyclopentyl}ethyl)thio]-1,3-thiazole-4-carboxylic acid]
clearance [1]: 23.9 mL/min/kg
improvement in maximal urinary flow rate over the vehicle group [2]: 36%
effect on the blood pressure (normal rats): tendency to decrease
increase in heart rate (normal rats): about 20%
